Biological target: human DP2 (Homo sapiens (Human), UniProt Q9Y5Y4)
Assay: DP-2 Binding Inhibition Assay (3H-PGD2 binding to membranes of K562 cells expressing DP2)
Conditions: EC50 (nM) 4% HSA, inhibition of 3H-PGD2 binding, 4% HSA
Procedure: DP-2 Binding Inhibition Assay
The coding sequence of human DP2 was introduced into the human Leukemic cell line K562 by electroporation and stable clones expressing DP2 were obtained by limiting dilution followed by cell surface staining with a rat monoclonal antibody specific for human DP2. Membranes were prepared from one of these DP2 expressing clones and used to determine the ability of compounds of the present invention to inhibit binding of prostaglandin D2 (PGD2) to its receptor DP2 in the presence of one or more of the following serum protein concentrations, 0.1% BSA, 1% HSA or 4% HSA, by the following procedure. Membranes (1.25 μg/well for 0.1% BSA and 6 μg/well for 1% or 4% HSA) were mixed with ^3H-labeled PGD2 and various concentrations of test compounds in 150 μL of binding buffer (50 mM Tris-HCl, pH 7.4, 40 mM MgCl2, 0.1% bovine serum albumin, 0.1% NaN3) in 96-well U-bottom polypropylene plates. After incubation for 60 minutes at room temperature, the assay was transferred to a filtration plate (#MAFB; Millipore Corporation, Bedford, Mass.), and washed three times with binding buffer. Radioactivity was measured by a scintillation counter (TopCount; PerkinElmer Life Sciences, Boston, Mass.). Nonspecific binding was determined by incubations in the presence of 1 μM unlabeled PGD2 or 5 μM of a known DP2 antagonist. EC50 values for inhibition of binding were determined for each compound tested from the inflexion point of a standard 4-parameter logistical curve fitted to the values obtained.

Chain of human DP2 (Q9Y5Y4 whole entry): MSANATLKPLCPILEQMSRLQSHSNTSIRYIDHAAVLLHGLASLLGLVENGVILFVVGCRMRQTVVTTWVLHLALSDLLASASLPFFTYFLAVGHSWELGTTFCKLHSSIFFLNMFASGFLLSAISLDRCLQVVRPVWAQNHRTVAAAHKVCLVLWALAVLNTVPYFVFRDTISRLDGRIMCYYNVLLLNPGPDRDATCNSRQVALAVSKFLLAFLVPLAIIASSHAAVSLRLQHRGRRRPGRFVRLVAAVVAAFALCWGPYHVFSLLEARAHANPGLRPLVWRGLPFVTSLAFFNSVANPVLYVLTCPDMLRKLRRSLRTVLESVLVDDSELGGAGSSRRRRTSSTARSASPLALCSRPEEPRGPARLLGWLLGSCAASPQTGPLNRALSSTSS

Compound | EC50
O=C(NCCc1ccc(Cl)cc1Cl)c1ccc(Oc2cc3c(cc2Cl)C(C(=O)O)CCO3)cc1 (single isomer, unassigned) [Example 106 Enantiomer 1, 6-chloro-7-(4-(2,4-dichlorophenethylcarbamoyl)phenoxy)chroman-4-carboxylic acid] | > 5000 nM

Same assay, conditions: assay described in Example A

Compound | relative activity of the enantiomers in the DP2 binding inhibition assay
O=C(NCCc1ccc(Cl)cc1Cl)c1ccc(Oc2cc3c(cc2Cl)C(C(=O)O)CCO3)cc1 (single isomer, unassigned) [Example 106 Enantiomer 1, 6-chloro-7-(4-(2,4-dichlorophenethylcarbamoyl)phenoxy)chroman-4-carboxylic acid] | less active than the sodium salt of Enantiomer 2

Same assay, conditions: read-out: EC50 (Nm) 1% HSA; inhibition of 3H-PGD2 binding, 1% HSA

Compound | EC50
N#Cc1cc2c(cc1Oc1ccc(C(=O)NCCc3cccc4ccccc34)cc1)OCCC2C(=O)O (stereo not shown) [Example 55, 6-Cyano-7-(4-(2-(naphthalen-1-yl)ethylcarbamoyl)phenoxy)chroman-4-carboxylic acid] | 12.1 nM
CC(C)(C)c1ccc(CCNC(=O)c2ccc(Oc3cc4c(cc3C#N)C(C(=O)O)CCO4)cc2)cc1 (stereo not shown) [Example 57, 7-(4-(4-tert-Butylphenethylcarbamoyl)phenoxy)-6-cyanochroman-4-carboxylic acid] | 18.9 nM
N#Cc1cc2c(cc1Oc1ccc(C(=O)NOCc3ccc(Cl)cc3)cc1)OCCC2C(=O)O (stereo not shown) [Example 7, 7-(4-(4-Chlorobenzyloxycarbamoyl)phenoxy)-6-cyanochroman-4-carboxylic acid] | 19 nM
N#Cc1cc2c(cc1Oc1ccc(C(=O)NCCc3ccc4ccccc4c3)cc1)OCCC2C(=O)O (stereo not shown) [Example 56, 6-Cyano-7-(4-(2-(naphthalen-2-yl)ethylcarbamoyl)phenoxy)chroman-4-carboxylic acid] | 14.2 nM

Same assay, conditions: read-out: EC50 (nM) 4% HSA; inhibition of 3H-PGD2 binding, 4% HSA

Compound | EC50
O=C(NCCCc1ccccc1)c1ccc(Oc2cc3c(cc2Cl)C(C(=O)O)CCO3)cc1 (stereo not shown) [Example 78, Sodium 6-chloro-7-(4-(3-phenylpropylcarbamoyl)phenoxy)chroman-4-carboxylate] | 681 nM
O=C(NCCc1cccc(Cl)c1Cl)c1ccc(Oc2cc3c(cc2Cl)C(C(=O)O)CCO3)cc1 (stereo not shown) [Example 139, Sodium 6-chloro-7-(4-(2,3-dichlorophenethylcarbamoyl)phenoxy)chroman-4-carboxylate] | 226 nM
O=C(NC1CCCC(c2ccc(Cl)cc2)C1)c1ccc(Oc2cc3c(cc2Cl)C(C(=O)O)CCO3)cc1 (stereo not shown) [Example 164, Sodium 6-chloro-7-(4-(3-(4-chlorophenyl)cyclohexylcarbamoyl)phenoxy)chroman-4-carboxylate] | 183 nM
O=C(NCCc1ccc(C(F)(F)F)cc1Cl)c1ccc(Oc2cc3c(cc2Cl)C(C(=O)O)CCO3)cc1 (stereo not shown) [Example 98, Sodium 6-chloro-7-(4-(2-chloro-4-(trifluoromethyl)phenethylcarbamoyl)phenoxy)chroman-4-carboxylate] | 193 nM
O=C(NCCCCc1cccc(Cl)c1)c1ccc(Oc2cc3c(cc2Cl)C(C(=O)O)CCO3)cc1 (stereo not shown) [Example 14, Sodium 6-chloro-7-(4-(4-(3-chlorophenyl)butylcarbamoyl)phenoxy)chroman-4-carboxylate] | 824 nM
O=C(NC1CCN(c2cccc(C(F)(F)F)c2)C1)c1ccc(Oc2cc3c(cc2Cl)C(C(=O)O)CCO3)cc1 (stereo not shown) [Example 122, Sodium 6-chloro-7-(4-(1-(3-(trifluoromethyl)phenyl)pyrrolidin-3-ylcarbamoyl)phenoxy)chroman-4-carboxylate] | 242 nM
COc1ccc(C2CCCC(NC(=O)c3ccc(Oc4cc5c(cc4Cl)C(C(=O)O)CCO5)cc3)C2)cc1 (stereo not shown) [Example 161, 6-Chloro-7-(4-(3-(4-methoxyphenyl)cyclohexylcarbamoyl)phenoxy)chroman-4-carboxylic acid] | 1120 nM
CCOc1ccc(CCNC(=O)c2ccc(Oc3cc4c(cc3Cl)C(C(=O)O)CCO4)cc2)c(OCC)c1 (stereo not shown) [Example 225, 6-chloro-7-(4-(2,4-diethoxyphenethylcarbamoyl)phenoxy)chroman-4-carboxylic acid] | 56 nM
O=C(NCC(O)c1ccc(Cl)cc1)c1ccc(Oc2cc3c(cc2Cl)C(C(=O)O)CCO3)cc1 (stereo not shown) [Example 184, Sodium 6-chloro-7-(4-(2-(4-chlorophenyl)-2-hydroxyethylcarbamoyl)phenoxy)chroman-4-carboxylate] | 824 nM
O=C(NCCc1ccc(C(F)(F)F)cc1C1CC1)c1ccc(Oc2cc3c(cc2Cl)C(C(=O)O)CCO3)cc1 (stereo not shown) [Example 232, 6-chloro-7-(4-(2-cyclopropyl-4-(trifluoromethyl)phenethylcarbamoyl)phenoxy) chroman-4-carboxylic acid] | 46.5 nM
CCOc1cc(OC)ccc1CCNC(=O)c1ccc(Oc2cc3c(cc2Cl)C(C(=O)O)CCO3)cc1 (stereo not shown) [Example 228, 6-chloro-7-(4-(2-ethoxy-4-methoxyphenethylcarbamoyl)phenoxy)chroman-4-carboxylic acid] | 88.9 nM
O=C(NCCC1CCCC1)c1ccc(Oc2cc3c(cc2Cl)C(C(=O)O)CCO3)cc1 (stereo not shown) [Example 186, Sodium 6-chloro-7-(4-(2-cyclopentylethylcarbamoyl)phenoxy)chroman-4-carboxylate] | 538 nM
O=C(NCCc1cc(Cl)cc(Cl)c1)c1ccc(Oc2cc3c(cc2Cl)C(C(=O)O)CCO3)cc1 (stereo not shown) [Example 148, Sodium 6-chloro-7-(4-(3,5-dichlorophenethylcarbamoyl)phenoxy)chroman-4-carboxylate] | 196 nM
O=C(NCCc1ccc(Br)cc1Cl)c1ccc(Oc2cc3c(cc2Cl)C(C(=O)O)CCO3)cc1 (stereo not shown) [Example 28, Sodium 7-(4-(4-bromo-2-chlorophenethylcarbamoyl)phenoxy)-6-chlorochroman-4-carboxylate] | 123 nM
COc1ccc(OC)c(CCNC(=O)c2ccc(Oc3cc4c(cc3Cl)C(C(=O)O)CCO4)cc2)c1 (stereo not shown) [Example 88, Sodium 6-chloro-7-(4-(2,5-dimethoxyphenethylcarbamoyl)phenoxy)chroman-4-carboxylate] | 203 nM
O=C(NCCc1ccc(Br)cc1)c1ccc(Oc2cc3c(cc2Cl)C(C(=O)O)CCO3)cc1 (stereo not shown) [Example 23, Sodium 7-(4-(4-bromophenethylcarbamoyl)phenoxy)-6-chlorochroman-4-carboxylate] | 327 nM
CSc1cccc(C2CCC(NC(=O)c3ccc(Oc4cc5c(cc4Cl)C(C(=O)O)CCO5)cc3)C2)c1 (stereo not shown) [Example 172, Sodium 6-chloro-7-(4-(3-(3-(methylthio)phenyl)cyclopentylcarbamoyl)phenoxy)chroman-4-carboxylate] | 282 nM
O=C(NCCc1ccc(F)cc1)c1ccc(Oc2cc3c(cc2Cl)C(C(=O)O)CCO3)cc1 (stereo not shown) [Example 85, Sodium 6-chloro-7-(4-(4-fluorophenethylcarbamoyl)phenoxy)chroman-4-carboxylate] | 344 nM
O=C(NCC1CCc2cc(Cl)ccc21)c1ccc(Oc2cc3c(cc2Cl)C(C(=O)O)CCO3)cc1 (stereo not shown) [Example 231, 6-chloro-7-(4-((5-chloro-2,3-dihydro-1H-inden-1-yl)methylcarbamoyl)phenoxy) chroman-4-carboxylic acid] | 225 nM
O=C(NCCCCc1ccccc1)c1ccc(Oc2cc3c(cc2Cl)C(C(=O)O)CCO3)cc1 (stereo not shown) [Example 13, Sodium 6-chloro-7-(4-(4-phenylbutylcarbamoyl)phenoxy)chroman-4-carboxylate] | 405 nM
Cc1cc(Cl)ccc1CCNC(=O)c1ccc(Oc2cc3c(cc2Cl)C(C(=O)O)CCO3)cc1 (stereo not shown) [Example 27, Sodium 6-chloro-7-(4-(4-chloro-2-methylphenethylcarbamoyl)phenoxy)chroman-4-carboxylate] | 216 nM
O=C(NC1CCC(c2cccc(F)c2)C1)c1ccc(Oc2cc3c(cc2Cl)C(C(=O)O)CCO3)cc1 (stereo not shown) [Example 171, Sodium 6-chloro-7-(4-(3-(3-fluorophenyl)cyclopentylcarbamoyl)phenoxy)chroman-4-carboxylate] | 333 nM
O=C(NCCc1ccccc1Br)c1ccc(Oc2cc3c(cc2Cl)C(C(=O)O)CCO3)cc1 (stereo not shown) [Example 91, Sodium 7-(4-(2-bromophenethylcarbamoyl)phenoxy)-6-chlorochroman-4-carboxylate] | 192 nM
O=C(NC(CO)Cc1ccc(Cl)cc1)c1ccc(Oc2cc3c(cc2Cl)C(C(=O)O)CCO3)cc1 (stereo not shown) [Example 178, Sodium 6-chloro-7-(4-(1-(4-chlorophenyl)-3-hydroxypropan-2-ylcarbamoyl)phenoxy)chroman-4-carboxylate] | 1730 nM
O=C(NCCc1ccc(Cl)c(Cl)c1)c1ccc(Oc2cc3c(cc2Cl)C(C(=O)O)CCO3)cc1 (stereo not shown) [Example 138, Sodium 6-chloro-7-(4-(3,4-dichlorophenethylcarbamoyl)phenoxy)chroman-4-carboxylate] | 239 nM
CCc1ccccc1CCNC(=O)c1ccc(Oc2cc3c(cc2Cl)C(C(=O)O)CCO3)cc1 (stereo not shown) [Example 196, sodium 6-chloro-7-(4-(2-ethylphenethylcarbamoyl)phenoxy)chroman-4-carboxylate] | 269 nM
CSc1ccccc1CCNC(=O)c1ccc(Oc2cc3c(cc2Cl)C(C(=O)O)CCO3)cc1 (stereo not shown) [Example 117, Sodium 6-chloro-7-(4-(2-(methylthio)phenethylcarbamoyl)phenoxy)chroman-4-carboxylate] | 246 nM
Cc1ccc(SCCNC(=O)c2ccc(Oc3cc4c(cc3Cl)C(C(=O)O)CCO4)cc2)cc1 (stereo not shown) [Example 112, Sodium 6-chloro-7-(4-(2-(p-tolylthio)ethylcarbamoyl)phenoxy)chroman-4-carboxylate] | 4190 nM

Reference: patent publication US9556139B2, “6-substituted phenoxychroman carboxylic acid derivatives” (Array BioPharma Inc., priority 2008, dated 2017)
